Experimental findings from patent US4528397A, “Aminocarboxylic acid derivatives” (Sanraku-Ocean Co., Ltd., priority 1982, dated 1985) are described below.

The target of one data set is T1, dipeptidase (Rattus norvegicus, UniProt P31430).
T1 construct: from tissue; host or cells: rat kidney, microsome fraction
Nature of the data set: In vitro inhibition of partially purified rat kidney dipeptidase (spectrophotometric). The data set is classed as biochemical. The conditions noted are these: pH 8.0, 37° C., substrate of Table 1 (glycyldehydrophenylalanine or PS-5) not stated; for inhibition at 100 µM: inhibitor 10^-4 M. The protocol: (1) Purification of dipeptidase
Rats were sacrificed by decapitation, and about 12 g of fresh kidneys were collected. A microsome fraction was obtained by the Hogboom's subcellular fractionating method used on differential centrifugation (Methods in Enzymology, Vol. 1, pages 16-19, Academic Press, New York, 1955). The microsome fraction was treated with 400 μg/ml of trypsin at 0° C. for 16 hours, and then supercentrifugally fractionated at 10^5 G for 60 minutes at 0° C.
The resulting precipitate was suspended in 20 ml of tris-HCl buffer (20 mM, pH 7.6) containing a detergent (0.4% Triton X-100), and then supercentrifugally fractionated at 10^5 G for 60 minutes at 0° C. The supernatant liquid was charged onto a column (15×100 mm) of Sephadex A-50 (Cl-form), and the column was eluted with tris-HCl buffer (20 mM, pH 7.0) containing a detergent (0.4% Triton X-100) with a sodium chloride concentration linear gradient from 0 to 0.5M.
The active fractions were concentrated with polyethylene glycol 4000, and then successively purified by a Sephadex G-150 (25×900 mm) column and a Sephadex G-200 (25×900 mm) column using the same tris-HCl buffer as above to obtain a partially purified sample of the dipeptidase.
(2) Measurement of inhibitory activity
Fifty microliters of the enzyme obtained as above was preincubated together with 30 μl of an inhibitor solution in a cuvette at 37° C. for 5 minutes. Then, 2.82 ml of a solution of glycyldehydrophenylalanine (5.3×10^-5 M) preincubated to 37° C. as a substrate in tris-HCl (0.1M, pH 8.0) was added, and the reaction was started. The reaction was carried out in a cuvette of a Hitachi spectrophotometer equipped with a constant temperature (37° C.) device, and by a recorder, a decrease in the absorbance of the reaction mixture at a wavelength of 275 nm during 5 minutes was measured.
The same experiment as above was carried out using a tris-HCl (pH 8.0) solution of antibiotic PS-5 (1.03 mM) as a substrate, and a decrease in the absorbance of the reaction mixture at a wavelength of 300 nm during 5 minutes was measured.
The percent inhibition and ID50 at a predetermined inhibitor concentration were determined from the measured values obtained as above and that obtained in a control in which no inhibitor was used.

Data set [1] is described as follows: Coadministration of AEG and antibiotic PS-5: plasma concentration of antibiotic PS-5. As to conditions: for concentration at 5 min / concentration at 0.25 h / concentration at 0.5 h: mouse, plasma, sc, 2 mg. It is filed as in vivo, mice (male, ddY). The protocol:
(§1) Coadministration of N-(2-aminoethyl)glycine and antibiiotic PS-5
(§2) To groups of 5 mice each (male, ddY, aged 5 weeks) was orally administered 0.25 ml (20 mg/mouse) of an aqueous solution of N-(2-aminoethyl)glycine (AEG) in a concentration of 80 mg/ml (the solutions had been adjusted to pH 7.5 with 1N HCl). The same volume of pure water was administered to a control group. Thirty minutes later, 0.25 ml of a solution of antibiotic PS-5 Na salt (8 mg/ml) in M/100 PBS (pH 7.0) was subcutaneously administered. Blood was taken from the retroorbital sinus at various time intervals using a heparinized capillary (a thermohematocrit capiratry tube, total length 75 mm, outside diameter 1.45-1.65 mm). One end of the tube was sealed with IATROSEAL® (Iatron Laboratries) and the plasma was separated by centrifugal separation (3000 rpm, 10 minutes). Blood sampling was carried out a total of six times at 0 time (immediately before administration of the antibiotic PS-5) and 5 minutes, 15 minutes, 30 minutes, 60 minutes and 90 minutes after the administration of the antibiotic PS-5. The concentration of the antibiotic PS-5 in the plasma was disc-assayed against Comamonas terrigena B-996.

A short description of data set [2]: Coadministration of AEG and antibiotic PS-5: urinary recovery of antibiotic PS-5. It is filed as in vivo, mice (male, ddY). As to conditions: mouse, urine, sc, 2 mg, 0-3 hrs. The protocol:
as §1
as §2, with “The concentration of the antibiotic PS-5 in the plasma was disc-assayed against Comamonas terrigena B-996.” left out
On the other hand, the whole urine of the mice was taken 3 hours after the administration of the antibiotic PS-5, and the concentration of the antibiotic PS-5 in the collected whole urine was assayed by the same method as above. The mean concentrations for five mice was calculated.

T1 sequence (P31430 17-410): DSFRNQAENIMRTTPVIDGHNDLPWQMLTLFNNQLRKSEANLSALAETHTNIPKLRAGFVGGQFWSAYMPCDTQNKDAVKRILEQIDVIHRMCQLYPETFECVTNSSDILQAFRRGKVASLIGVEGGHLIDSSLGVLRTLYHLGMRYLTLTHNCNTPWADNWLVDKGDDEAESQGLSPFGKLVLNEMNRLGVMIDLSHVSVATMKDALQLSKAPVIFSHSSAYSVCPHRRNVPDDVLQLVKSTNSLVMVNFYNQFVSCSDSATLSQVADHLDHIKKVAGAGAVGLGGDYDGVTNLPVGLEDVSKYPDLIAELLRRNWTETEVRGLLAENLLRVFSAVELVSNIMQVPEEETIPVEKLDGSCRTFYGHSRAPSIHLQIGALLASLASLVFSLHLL

On to `NCCNCC(=O)O` [Compound 1, N-(2-aminoethyl)glycine], for which the inhibition (commonly the percentage by which the read-out fell short of the control) at 100 µM against dipeptidase was 86%.
Turning to `NCCSCC(=O)O` [Compound 2, (2-aminoethyl)thioacetic acid], the inhibition at 100 µM at dipeptidase was 2%.
In turn, `C[C@H](NCCN)C(=O)O` [Compound 3, N-(2-aminoethyl)-L-alanine] gave an inhibition at 100 µM against dipeptidase of 15.6%.
On the same count and under the same terms, the value for `NCCN[C@@H](Cc1ccccc1)C(=O)O` [Compound 4, N-(2-aminoethyl)-L-phenylalanine] was 38%.
On to `N[C@H](CNCC(=O)O)Cc1ccccc1` [Compound 5, (S)-[N-(2-amino-2-benzyl)ethyl]glycine], for which the inhibition at 100 µM on dipeptidase amounted to 85%. Moreover, the IC50 on dipeptidase (read-out: ID50 (the source's name)) came out at 22 µM.
Compound `C[C@H](N)CNCC(=O)O` [Compound 6, (S)-N-(2-aminopropyl)glycine] displayed an inhibition at 100 µM at dipeptidase of 42.4%.
Turning to `CC[C@H]1C(=O)N2C(C(=O)O)=C(SCCNC(C)=O)C[C@H]12` [antibiotic PS-5], the “Concentration of antibiotic PS-5 in the plasma” value in data set [1] (AEG administered group (AEG 20 mg/mouse oral, 30 min before PS-5 s.c.), 0 min (immediately before PS-5)) stood at 0 ng/mL; in data set [1] (AEG administered group, 60 min after PS-5 s.c.), 0 ng/mL; in data set [1] (AEG administered group, 90 min after PS-5 s.c.) it was 0 ng/mL; in data set [1] (Control group (water instead of AEG, then PS-5 s.c.), 0 min (immediately before PS-5)) it was 0 ng/mL; in data set [1] (Control group (water, PS-5 s.c.), 60 min), 0 ng/mL; in data set [1] (Control group (water, PS-5 s.c.), 90 min) it was 0 ng/mL. The concentration at 5 min in data set [1] (AEG administered group, 5 min after PS-5 s.c.) was found to be 49600 ± 3700 ng/mL; in data set [1] (Control group (water, PS-5 s.c.), 5 min), 52000 ± 4600 ng/mL. In addition, the concentration at 0.25 h in data set [1] (AEG administered group, 15 min after PS-5 s.c.) stood at 21700 ± 2600 ng/mL; in data set [1] (Control group (water, PS-5 s.c.), 15 min), 15200 ± 1900 ng/mL. Further, the concentration at 0.5 h in data set [1] (AEG administered group, 30 min after PS-5 s.c.) amounted to 2300 ± 500 ng/mL; in data set [1] (Control group (water, PS-5 s.c.), 30 min) it was 1000 ± 100 ng/mL. For the same compound, the dose excreted at 3 h turned out to be 13.2% in data set [2] (AEG administered group (AEG 20 mg/mouse oral, PS-5 s.c.)) and 0% in data set [2] (Control group (water, PS-5 s.c.)).
